Source: ChEMBL document CHEMBL3875198, “Synthesis and biological properties of galactofuranosyl-containing fluorescent dyes” (Bioorg Med Chem Lett, 2017)
Calls of active or inactive are those of the source. The calls are words filed in the database; no cut-off is given here.

Assays:
[1] = Cellular uptake in human macrophages infected with amastigote form of Leishmania donovani MHOM/SD/LEM3427 at 80 uM measured after 6 hrs by Hoechst-33342 staining based epifluorescence microscopy; type: ADME, cell-based; conditions: macrophage
[2] = Drug uptake in human macrophage cytoplasm infected with amastigote form of Leishmania donovani MHOM/SD/LEM3427 at 80 uM measured after 6 to 18 hrs by Hoechst-33342 staining based epifluorescence microscopy; type: ADME
[3] = tested on: Leishmania donovani; assay: Antileishmanial activity against amastigote form of Leishmania donovani MHOM/SD/LEM3427 infected in human macrophages assessed as phenotypic surface alterations by MGG-staining based analysis; type: functional
[4] = tested on: Leishmania donovani; assay: Antileishmanial activity against amastigote form of Leishmania donovani MHOM/SD/LEM3427 infected in human macrophages assessed as reduction in macrophage infection at 80 uM measured after 48 hrs; type: functional
[5] = tested on: Leishmania donovani; assay: Antileishmanial activity against amastigote form of Leishmania donovani MHOM/SD/LEM3427 infected in human macrophages assessed as reduction in amastigote multiplication at 80 uM measured after 48 hrs; type: functional

| Drug uptake [1] | Drug uptake [2] | SMILES | Activity [3] | Activity [4] | Activity [5] |
| --- | --- | --- | --- | --- | --- |
| Active | Active | CC/N=c1\cc2oc3cc(NCC)c(C)cc3c(-c3ccccc3C(=O)OCC)c-2cc1C.Cl [RHODAMINE 6G HYDROCHLORIDE] | Active | – | – |
| Active | Active | O=C(O)c1cc(NC(=S)NCCCCCCO[C@@H]2O[C@@H]([C@H](O)CO)[C@H](O)[C@H]2O)ccc1-c1c2ccc(=O)cc-2oc2cc(O)ccc12 | – | – | – |
| Active | Active | CC/N=c1/cc2oc3cc(NCC)c(C)cc3c(-c3ccccc3C(=O)NCCCCCCO[C@@H]3O[C@@H]([C@H](O)CO)[C@H](O)[C@H]3O)c-2cc1C.Cl | – | Active | Active |
